Tests used:
BDNF promoter IV = test: Tet-assisted bisulfite sequencing (TAB-seq) of 5-hmC in BDNF promoter IV; type: cell-based, mouse; conditions: with 4 BDNF gRNAs; 40 and 60 hours post infection
Procedure: FIGS. 11A-11L depict targeted demethylation of BDNF promoter IV by dCas9-Tet1 in neurons. […] PAM for each gRNA is highlighted by a red box. […] Note that cultured neurons were treated with AraC on DIV2 to halt cell division in glial cells and neural progenitors. […] FIG. 11C provides EDU labeling analysis for the mouse primary neurons over the course of KCl treatment for 24 hrs. Note that extremely few EDU positive cells were observed. Stained in red for EDU, green for MAP2 and DAPI for nuclei. Scale bar: 500 um. FIG. 11D Upper panel: provides quantification of neuronal density over the course of KCl treatment. The post-mitotic neuron density remains steadily around 4.5×10^4/cm2 over time. Bars represent mean±SD of three experimental replicates. Lower panel: provides quantification of the EDU positive cells over the course of KCl treatment. Less than 2% of the cells are EDU-positive over 24 hrs. Bars represent mean±SD of three experimental replicates. FIG. 11E provides confocal micrographs of BDNF induction by ectopic expression of dCas9-Tet1 and a set of 4 gRNAs targeting BDNF promoter IV. Stained in green for BDNF, magenta for MAP2, red for Cherry and blue for DAPI. […]
Because post-mitotic neurons were used for these experiments, loss of methylation was likely due to active demethylation. […] Similarly, 5-hmC was also detected after KCl treatment (FIG. 11I). […]

[1] = system: MyoD distal enhancer (DMR-5); test: Bisulfite sequencing of the MyoD DMR-5 region in C3H10T1/2 cells; type: cell-based, mouse; conditions: with target gRNAs, sorted infection-positive cells
Description: FIGS. 4A-4H depict targeted demethylation of the MyoD distal enhancer by dCas9-Tet1 to facilitate conversion of fibroblasts to myoblasts. FIG. 4A provides a schematic representation of targeting the MyoD distal enhancer (DE) region in DMR-5 by dCas9-Tet1 (dC-T) with specific gRNAs. […] Cherry positive cells were FACS sorted for RT-qPCR analysis. Bars represent mean±SD of three experimental replicates. FIG. 4C bisulfite sequencing of cells in FIG. 4B. […] Shown is the mean percentage±SD of two biological replicates. […] FIG. 4F provides quantification of MyoD positive cell ratio 14-day post infection with lentiviruses expressing dC-T alone, dC-T with gRNAs targeting DMR-5, and dC-dT with the target gRNAs. […] FIG. 4H provides quantification of myotube density in MHC positive clusters with more than 2 or 5 nuclei at 14-days after infection. […] Data are quantified from 3-5 representative images for F-H. Bars represent mean±SD.
Six muscle-specific DMRs have been described within the 50 kb upstream region of MyoD gene (Schultz et al., 2015), and DMR-5 overlaps with a known distal enhancer of MyoD (Brunk et al., 1996) as shown in FIG. 4A. […] The cells were cultured for 14 days and analyzed for MyoD and MHC (Myosin Heavy chain, a myotube specific marker) expression. […]

Substance: dCas9-Tet1: catalytically inactive Cas9 (dCas9) fused through NLS to the Tet1 catalytic domain, SEQ ID NO: 159; lentivirally expressed with gRNAs
- 5-hmC level in BDNF promoter IV (BDNF promoter IV): detected 40-hour post infection with dCas9-Tet1 and gRNA lentiviruses and diminished after 60 hours
- methylation in the DMR-5 region [1]: substantial reduction of methylation

Reference: US12060588B2, “Methods of editing DNA methylation” (Whitehead Institute for Biomedical Research, priority 2016, dated 2024)
